Patent publication US11084781B2, “Diarylureas as CB1 allosteric modulators” (Research Triangle Institute, priority 2017, dated 2021)
“Also recorded” adds a separate entry of the source.

How the values were obtained:
human CB1 receptor [1] = biological target: T1, human CB1 receptor (Homo sapiens, UniProt P21554); assay: CB1 calcium mobilization assay, agonist screen; assay type: cell-based; settings: Table 1; 10,000 nM final concentration; mean ± SD
T1 construct: host or cells: CHO-RD-HGA16 cells (CHO cells overexpressing promiscuous Galpha16)

[2] = Metabolic stability in rat liver microsomes; assay type: in vitro ADME
Description: Metabolic stability assessment was performed by Paraza Pharma Inc. (Montreal, Canada).
Compounds were incubated with rat liver microsomes at 37° C. for a total of 45 minutes. The reaction was performed at pH 7.4 in 100 mM potassium phosphate buffer containing 0.5 mg/mL of rat liver microsomal protein. Phase I metabolism was assessed by adding NADPH to a final concentration of 1 mM and collecting samples at time points 0, 5, 15, 30 and 45 minutes. All collected samples were quenched 1:1 with ice-cold stop solution (1 μM labetalol and 1 μM glyburide in acetonitrile), and centrifuged to remove precipitated protein. Resulting supernatants were further diluted 1:4 with acetonitrile:water (1:1). Samples were analyzed by LC/MS/MS and calculations for half-life, and in-vitro clearance were accomplished using Microsoft Excel (2007).

CB1 receptor = biological target: T2, CB1 receptor (Mus musculus, UniProt P47746); assay: [35S]GTP-γ-S binding assay in mouse cerebellar membranes, CP55,940-stimulated; assay type: biochemical; settings: for IC50: CP55,940 (100 nM) stimulation, mean (95% confidence interval)
T2 construct: from tissue; host or cells: cerebellar membranes of adult male CD-1 mice

human CB1 receptor [3] = biological target: T1, human CB1 receptor; assay: CB1 calcium mobilization assay (antagonist mode, against EC80 of CP55,940); assay type: cell-based; settings: Table 1; against EC80 (100 nM) of CP55,940; mean ± S.E.M.; read-out: CB1 calcium assay IC50
[4] = test system: cocaine-seeking behavior in rats; assay: Reinstatement of extinguished cocaine-seeking behavior; assay type: in vivo, rat
Description: Animals: Adult male Sprague-Dawley rats (Harlan, Indianapolis, Ind.) weighing 280-300 g were used in the study. Animals were housed individually on a 12/12 hr light/dark cycle (behavioral experiments were conducted during the light period) with free access to water and food except during experimental sessions. Animals were maintained and experiments conducted in accordance with the Institutional Animal Care and Use Committee, University at Buffalo, and with the 2011 Guide for the Care and Use of Laboratory Animals (Institute of Laboratory Animal Resources on Life Sciences, National Research Council, National Academy of Sciences, Washington D.C.).
Drug self-administration, extinction and reinstatement: The reinstatement procedure was described in detail elsewhere^37, 38. Briefly, rats were surgically implanted with a chronic indwelling jugular catheter. After one-week recovery, rats were trained to press the active lever (left lever) for infusion of cocaine (0.75 mg/kg/inf) under a fixed ratio [FR] schedule (starting FR=1, which was increased to FR 5 within 5 training sessions) schedule during daily 2-hr sessions for 14 days. Reinforcer deliveries were accompanied by the presentation of a stimulus light over the active lever followed by a 30-s time-out period during which lever presses had no programmed consequence. Following acquisition of cocaine self-administration, extinction of drug-seeking behavior took place during 2-hr daily sessions in which lever pressing produced no consequence. All other conditions remained unchanged. After 7 days of extinction, all rats reached the extinction criteria (total responses less than 20% of the training sessions).
Drug-induced reinstatement test was conducted on the day following the last extinction session. Rats were pretreated with vehicle, compounds 2 (15, 30 mg/kg) or 34 (10 mg/kg) 10 min prior to a priming injection of cocaine (10 mg/kg, i.p.) administered immediately before the start of the reinstatement session.
Data analyses: Data are expressed as mean±S.E.M. Differences in active lever responding between the last extinction session and reinstatement session were determined with paired t tests (within subjects comparison). The effects of compounds 2 on reinstatement were analyzed by a one-way analysis of variance (ANOVA) followed by post hoc Bonferroni's test (between subjects comparison). The effects of compounds 34 on reinstatement was analyzed by Student's t test. P<0.05 was considered statistically significant.

[5] = pretreatment 10 min prior to cocaine prime 10 mg/kg i.p.

T2 sequence (P47746 whole entry): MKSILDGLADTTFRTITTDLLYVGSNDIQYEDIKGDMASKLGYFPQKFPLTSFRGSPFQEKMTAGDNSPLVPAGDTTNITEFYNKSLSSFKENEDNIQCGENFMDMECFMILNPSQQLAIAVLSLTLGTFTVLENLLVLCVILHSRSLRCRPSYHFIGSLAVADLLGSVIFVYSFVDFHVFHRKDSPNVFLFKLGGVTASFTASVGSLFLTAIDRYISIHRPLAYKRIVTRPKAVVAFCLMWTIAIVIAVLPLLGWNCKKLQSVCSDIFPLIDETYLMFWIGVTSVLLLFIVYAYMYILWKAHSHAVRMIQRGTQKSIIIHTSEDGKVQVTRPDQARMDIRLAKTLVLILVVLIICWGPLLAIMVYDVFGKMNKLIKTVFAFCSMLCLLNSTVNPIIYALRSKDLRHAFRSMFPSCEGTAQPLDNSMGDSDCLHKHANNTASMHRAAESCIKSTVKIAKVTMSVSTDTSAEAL
T1 sequence (P21554 whole entry): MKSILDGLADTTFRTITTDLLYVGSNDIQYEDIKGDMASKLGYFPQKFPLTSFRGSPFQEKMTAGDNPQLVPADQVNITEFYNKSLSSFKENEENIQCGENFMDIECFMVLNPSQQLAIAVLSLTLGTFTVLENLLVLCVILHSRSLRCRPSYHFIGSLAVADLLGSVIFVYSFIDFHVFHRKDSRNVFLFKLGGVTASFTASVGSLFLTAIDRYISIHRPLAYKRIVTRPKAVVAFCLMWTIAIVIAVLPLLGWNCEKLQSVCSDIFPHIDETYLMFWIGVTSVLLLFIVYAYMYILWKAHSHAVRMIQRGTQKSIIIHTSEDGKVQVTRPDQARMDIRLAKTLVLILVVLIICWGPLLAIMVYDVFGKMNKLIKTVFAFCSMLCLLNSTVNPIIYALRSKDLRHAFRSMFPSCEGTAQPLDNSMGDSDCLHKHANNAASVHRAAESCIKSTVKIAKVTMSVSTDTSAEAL

| Structure (SMILES) | CB1 calcium assay Agonist screen (% CP55, 940 Emax) (human CB1 receptor [1]) | IC50 (CB1 receptor) [µM] | IC50 (human CB1 receptor [3]) [µM] | further results |
| --- | --- | --- | --- | --- |
| O=C(Nc1ccc(Cl)cc1)Nc1cccc(-c2ccncc2)c1 [Compound 20, 3-(4-Chlorophenyl)-1-[3-(pyridin-4-yl)phenyl]urea] | 14.5 ± 2.5 % CP55, 940 Emax | 0.407 | 0.178 ± 0.038 | Clearance ([2]; 0.5 mg/mL, NADPH, 37° C., mean ± S.E.M.): 33.1 ± 1.0 µL/min/mg; Increase in metabolic stability relative to B ([2]; half-life vs B): ~3 fold |
| O=C(Nc1ccc(Cl)cc1)Nc1cccc(-c2cc(Cl)cc(Cl)c2)c1 [Compound 31, 3-(4-Chlorophenyl)-1-[3-(3,5-dichlorophenyl)phenyl]urea] | 15.5 ± 2.4 % CP55, 940 Emax | 0.299 | 0.022 ± 0.002 |  |
| O=C(Nc1ccc(Cl)cc1)Nc1cccc(-c2ccc(Cl)c(Cl)c2)c1 [Compound 32, 3-(4-Chlorophenyl)-1-[3-(3,4-dichlorophenyl)phenyl]urea] | 10.4 ± 2.1 % CP55, 940 Emax | 0.464 | 0.03 ± 0.004 |  |
| O=C(Nc1ccc(Cl)cc1)Nc1cccc(-c2ccc(F)cc2)c1 [Compound 34, 3-(4-Chlorophenyl)-1-[3-(4-fluorophenyl)phenyl]urea] | 8.8 ± 1.1 % CP55, 940 Emax | 0.151 | 0.023 ± 0.002 | Attenuation of cocaine-induced reinstatement of cocaine-seeking behavior ([4]; dose 10 mg/kg, cocaine prime 10 mg/kg i.p.): produced the same degree of attenuation as that of 30 mg/kg of B; Attenuation of cocaine-induced reinstatement of cocaine-seeking behavior [4, 5]: attenuated the resumption of extinguished cocaine-seeking behavior; half-life ([2]; pH 7.4, 0.5 mg/mL, NADPH, 37° C., mean ± S.E.M.): > 5 h; microsomal CLint ([2]; pH 7.4, 0.5 mg/mL, NADPH, 37° C., mean ± S.E.M., read-out: Clearance): < 4.6 µL/min/mg |
| O=C(Nc1ccc(Cl)cc1)Nc1cccc(-c2cccc(-c3ccccc3)c2)c1 [Compound 38, 3-(4-Chlorophenyl)-1-[3-(3-phenylphenyl)phenyl]urea] | 0.5 ± 0.2 % CP55, 940 Emax | 0.559 | 0.195 ± 0.04 |  |
| O=C(Nc1ccc(Cl)cc1)Nc1cccc(-c2ccc3occc3c2)c1 [Compound 41, 1-[3-(1-Benzofuran-5-yl)phenyl]-3-(4-chlorophenyl)urea] | 0.2 ± 1.0 % CP55, 940 Emax | 0.265 | 0.134 ± 0.013 |  |
| O=C(Nc1ccc(Cl)cc1)Nc1cccc(-c2cnc3ccccc3c2)c1 [Compound 44, 3-(4-Chlorophenyl)-1-[3-(quinolin-3-yl)phenyl]urea] | 2.6 ± 1.2 % CP55, 940 Emax | 0.651 | 0.516 ± 0.07 |  |
| O=C(Nc1ccc(Cl)cc1)Nc1cccc(-c2ccsc2)c1 [Compound 47, 3-(4-Chlorophenyl)-1-[3-(thiophen-3-yl)phenyl]urea] | 28.9 ± 0.6 % CP55, 940 Emax | 0.164 | 0.036 ± 0.001 |  |

More lines, main results first:

| CB1 calcium assay Agonist screen (% CP55, 940 Emax) (human CB1 receptor [1]) | IC50 (CB1 receptor) [µM] | IC50 (human CB1 receptor [3]) [µM] | Structure (SMILES) | further results |
| --- | --- | --- | --- | --- |
| 12.8 ± 1.8 % CP55, 940 Emax | 0.573 | 0.067 ± 0.006 | O=C(Nc1ccc(Cl)cc1)Nc1cccc(-c2cccs2)c1 [Compound 48, 3-(4-Chlorophenyl)-1-[3-(thiophen-2-yl)phenyl]urea] |  |
| 3.7 ± 1.7 % CP55, 940 Emax | 0.776 | 0.04 ± 0.004 | Cc1cc(-c2cccc(NC(=O)Nc3ccc(Cl)cc3)c2)cs1 [Compound 49, 3-(4-Chlorophenyl)-1-[3-(5-methylthiophen-3-yl)phenyl]urea] |  |
| 4.6 ± 1.4 % CP55, 940 Emax | 0.372 | 0.042 ± 0.006 | Cc1ccc(-c2cccc(NC(=O)Nc3ccc(Cl)cc3)c2)s1 [Compound 50, 3-(4-Chlorophenyl)-1-[3-(5-methylthiophen-2-yl)phenyl]urea] |  |
| 8.1 ± 3.1 % CP55, 940 Emax | 0.331 | 0.094 ± 0.009 | O=C(Nc1ccc(Cl)cc1)Nc1cccc(-c2cncs2)c1 [Compound 51, 3-(4-Chlorophenyl)-1-[3-(1,3-thiazol-5-yl)phenyl]urea] |  |
| 8.6 ± 4.4 % CP55, 940 Emax | 0.25 | 0.084 ± 0.006 | O=C(Nc1ccc(Cl)cc1)Nc1cccc(-c2cscn2)c1 [Compound 52, 3-(4-Chlorophenyl)-1-[3-(1,3-thiazol-4-yl)phenyl]urea] |  |
| 20.1 ± 1.1 % CP55, 940 Emax | 1.26 | 0.154 ± 0.014 | O=C(Nc1ccc(Cl)cc1)Nc1cccc(-c2nccs2)c1 [Compound 53, 3-(4-Chlorophenyl)-1-[3-(1,3-thiazol-2-yl)phenyl]urea] |  |
| 13.7 ± 0.1 % CP55, 940 Emax | 0.04 | 0.169 ± 0.034 | O=C(Nc1ccc(Cl)cc1)Nc1cccc(-c2ccc[nH]2)c1 [Compound 65, 3-(4-Chlorophenyl)-1-[3-(1H-pyrrol-2-yl)phenyl]urea] |  |
| 3.4 ± 2.9 % CP55, 940 Emax | 0.665 | 0.165 ± 0.014 | Cn1cccc1-c1cccc(NC(=O)Nc2ccc(Cl)cc2)c1 [Compound 68, 3-(4-Chlorophenyl)-1-[3-(1-methyl-1H-pyrrol-2-yl)phenyl]urea] |  |
| 4.3 ± 0.5 % CP55, 940 Emax | 0.343 | 0.529 ± 0.098 | O=C(Nc1ccc(Cl)cc1)Nc1cccc(-c2ncc[nH]2)c1 [Compound 72, 3-(4-Chlorophenyl)-1-[3-(1H-imidazol-2-yl)phenyl]urea] |  |
| 28.8 ± 0.2 % CP55, 940 Emax | > 10 | 0.792 ± 0.043 | O=C(Nc1ccc(Cl)cc1)Nc1cccc(N2CC3(COC3)C2)c1 [Compound 84, 3-(4-Chlorophenyl)-1-(3-{2-oxa-6-azaspiro[3.3]heptan-6-yl}phenyl)urea] |  |
| 28.2 ± 4.8 % CP55, 940 Emax | 0.102 |  | O=C(Nc1ccc(Cl)cc1)Nc1cccc(-c2cccc(N3CCCC3)n2)c1 [Compound B, 1-(4-Chlorophenyl)-3-{3-[6-(pyrrolidin-1-yl)pyridin-2-yl]phenyl}urea, reference compound] | Attenuation of cocaine-induced reinstatement of cocaine-seeking behavior ([4]; dose 30 mg/kg, cocaine prime 10 mg/kg i.p.): significantly reduced cocaine-induced reinstatement behavior; Attenuation of cocaine-induced reinstatement of cocaine-seeking behavior [4, 5]: dose-dependently attenuated; also recorded: attenuated the resumption of extinguished cocaine-seeking behavior; Effect on [35S]GTP-γ-S binding level (CB1 receptor; CP55,940 as agonist probe): dose-dependently decreased |
